{"source": "paper PMC4978465", "about": "(Nature, 2015)", "key": {"[1]": {"target": "T1, BT3775 (Bacteroides thetaiotaomicron, UniProt Q8A191)", "T1 sequence (Q8A191 1-224)": "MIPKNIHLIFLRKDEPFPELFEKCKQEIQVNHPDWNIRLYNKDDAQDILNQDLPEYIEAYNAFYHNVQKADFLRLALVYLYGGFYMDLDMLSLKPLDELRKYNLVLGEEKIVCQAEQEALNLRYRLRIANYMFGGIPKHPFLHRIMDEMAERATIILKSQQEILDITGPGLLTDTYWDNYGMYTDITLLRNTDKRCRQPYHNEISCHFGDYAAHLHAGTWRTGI", "assay": "HPAEC, MALDI-TOF, linkage analysis", "format": "biochemical", "settings": "10 mM MnCl2, pH 7.5, 37 °C"}, "[2]": {"target": "T2, BxGH99 (Bacteroides xylanisolvens, UniProt D6D1V7)", "T2 sequence (D6D1V7 13-380)": "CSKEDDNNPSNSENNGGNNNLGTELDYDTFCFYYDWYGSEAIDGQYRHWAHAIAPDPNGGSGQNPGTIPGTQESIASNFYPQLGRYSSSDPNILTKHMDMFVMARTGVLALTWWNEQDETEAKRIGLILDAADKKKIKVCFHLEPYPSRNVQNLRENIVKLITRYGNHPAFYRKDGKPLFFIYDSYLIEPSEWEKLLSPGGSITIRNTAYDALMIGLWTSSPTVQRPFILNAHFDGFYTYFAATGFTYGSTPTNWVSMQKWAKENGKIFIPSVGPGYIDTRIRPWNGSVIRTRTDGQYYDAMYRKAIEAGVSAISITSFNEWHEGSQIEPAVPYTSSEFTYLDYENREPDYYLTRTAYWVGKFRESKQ", "assay": "X-ray crystal structure", "format": "binding", "settings": "crystal soak about 10 mM"}}, "data": [{"smiles": "Nc1nc2c(ncn2[C@@H]2O[C@H](COP(=O)(O)OP(=O)(O)O[C@H]3O[C@H](CO)[C@@H](O)[C@H](O)[C@@H]3O)[C@@H](O)[C@H]2O)c(=O)[nH]1", "note": "[GDP-Mannose]", "values": [{"measurement": "HPAEC, MALDI-TOF, linkage analysis", "setting": "[1]; acceptor mannose", "value": "using mannose as an acceptor and GDP-α-Man as the donor"}]}, {"smiles": "OC[C@H]1CNC[C@@H](O[C@H]2O[C@H](CO)[C@@H](O)[C@H](O)[C@@H]2O)[C@@H]1O", "note": "[Man-IFG]", "values": [{"measurement": "X-ray crystal structure", "setting": "[2]; ternary complex with alpha-1,2-mannobiose", "value": "ternary with Man-IFG and α-1,2-mannobiose, was achieved by soaking native BxGH99 crystals"}]}, {"smiles": "OC[C@H]1OC(O)[C@@H](O)[C@@H](O)[C@@H]1O", "note": "(stereo partly shown) [mannose]", "values": [{"measurement": "HPAEC, MALDI-TOF, linkage analysis", "setting": "[1]; donor GDP-mannose", "value": "mannobiose produced by BT3775 from mannose"}]}, {"smiles": "OC[C@H]1O[C@H](O[C@@H]2C(O)O[C@H](CO)[C@@H](O)[C@@H]2O)[C@@H](O)[C@@H](O)[C@@H]1O", "note": "(stereo partly drawn) [α-1,2-mannobiose]", "values": [{"measurement": "X-ray crystal structure", "setting": "[2]; ternary complex with Man-IFG", "value": "ternary with Man-IFG and α-1,2-mannobiose, was achieved by soaking native BxGH99 crystals"}]}]}
